IC50 data for three molecules are collected here from publication PMC11286609, “In vitro and in vivo analyses of eFAP: a novel FAP-targeting small molecule for radionuclide theranostics and other oncological interventions” (EJNMMI Radiopharmacy and Chemistry, 2024).

The term IC50 denotes the concentration at which inhibition is half-maximal.

The test addresses T1, huFAP (HT1080-huFAP cells) (Homo sapiens, UniProt Q12884).
T1 construct: expressed in transfected cells; host or cells: HT1080 (human sarcoma), stably transduced; provided by Prof; Dr. Uwe Haberkorn, University of Heidelberg
T1 sequence (Q12884 1-760): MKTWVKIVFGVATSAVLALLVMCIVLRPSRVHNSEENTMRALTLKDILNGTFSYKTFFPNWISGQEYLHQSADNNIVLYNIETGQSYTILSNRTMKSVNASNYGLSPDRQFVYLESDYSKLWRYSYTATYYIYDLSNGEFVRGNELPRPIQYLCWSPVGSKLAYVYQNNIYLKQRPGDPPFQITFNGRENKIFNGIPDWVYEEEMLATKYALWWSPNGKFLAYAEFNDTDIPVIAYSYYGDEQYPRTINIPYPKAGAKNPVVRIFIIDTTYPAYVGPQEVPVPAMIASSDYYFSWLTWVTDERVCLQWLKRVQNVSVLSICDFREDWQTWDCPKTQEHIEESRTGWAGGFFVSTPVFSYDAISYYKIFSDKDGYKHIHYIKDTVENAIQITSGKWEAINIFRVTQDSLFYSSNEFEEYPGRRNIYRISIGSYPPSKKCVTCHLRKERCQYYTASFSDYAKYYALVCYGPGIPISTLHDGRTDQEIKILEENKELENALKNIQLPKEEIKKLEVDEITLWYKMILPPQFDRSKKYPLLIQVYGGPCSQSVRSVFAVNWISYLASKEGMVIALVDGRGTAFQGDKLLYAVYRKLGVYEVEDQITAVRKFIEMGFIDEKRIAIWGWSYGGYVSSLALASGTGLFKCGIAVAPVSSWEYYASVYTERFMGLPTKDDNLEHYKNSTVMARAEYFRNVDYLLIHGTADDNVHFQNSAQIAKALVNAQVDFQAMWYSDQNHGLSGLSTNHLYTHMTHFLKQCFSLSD
The experiment in a line: [^111In]In-FAPI-46 displacement assay on FAP-expressing cells. It is filed as binding. The settings on record: 10^-9 M [^111In]In-FAPI-46, 45 min, n = 3, picture: nM ± 95% CI. As for the experimental part: Cell experiments were performed with the human sarcoma HT1080 cell line, stably transduced with human FAP (HT1080-huFAP) which were kindly provided by Prof. Dr. Uwe Haberkorn from the University of Heidelberg. The wild type HT1080 (ATTC), hereafter HT080-WT, was used as a negative control. Additionally, the pancreatic stellate cells PS-1, obtained from Queen Mary University, were used as an endogenously FAP expressing cell line. HT1080-huFAP and HT1080-WT cells were cultured in DMEM Glutamax© (Gibco; Breda, The Netherlands) and the PS-1 cells were cultured in RPMI (Gibco). Both media were supplemented with 10% FBS (Gibco), 100 UI/mL penicillin, and 100 µg/mL streptomycin (Merck Life Science NV; Amsterdam, The Netherlands). All cell lines were regularly passaged at 80% confluence and cultured at 37 °C, 5% CO2.
In vitro displacement studies of eFAP-6 and eFAP-7, as well as specificity and uptake assays, were performed using HT0180-huFAP cells. One day prior to the assay 100,000 cells were seeded in a 12-well plate in triplicate. […] For the uptake assay, the cells were incubated with 1 nM [^111In]In-eFAP-6 or [^111In]In-FAPI-46 for different time points (5–120 min) in the presence and absence of 1 mM UAMC-1110 to determine the specificity of^111 radiotracer binding. In both assays, the cells were washed twice with PBS after incubation and were subsequently lysed using 1 M NaOH for 20 min. The cell lysates were collected and radioactivity was measured in a γ-counter (PerkinElmer), simultaneously with 100 µL of the radioactive incubation medium as a standard. […] Uptake was expressed as percentage added activity per 200,000 cells (% AA/200,000 cells), and specific uptake was corrected by subtracting the uptake measured in the block wells.
All statistical analyses were performed with GraphPad Prism version 9.0 (San Diego, California USA). All IC50 values were determined using a non-linear regression Log(inhibitor) vs. response analysis with variable slope (four parameters). […]
In turn, `CN(CCCN1CCN(C(=O)CN2CCN(CC(=O)O)CCN(CC(=O)O)CCN(CC(=O)O)CC2)CC1)c1ccc2nccc(C(=O)NCC(=O)N3CC(F)(F)C[C@H]3C#N)c2c1` [FAPI-46, reference compound] displayed an IC50 of 1.42 ± 0.29 nM.
Take `N#C[C@@H]1CC(F)(F)CN1C(=O)CNC(=O)c1ccnc2c(OCCCNC(=O)CN3CCN(CC(=O)O)CCN(CC(=O)O)CCN(CC(=O)O)CC3)cccc12` [eFAP-6, (S)-2,2',2''-(10-(2-((3-((4-((2-(2-cyano-4,4-difluoropyrrolidin-1-yl)-2-oxoethyl)carbamoyl)quinolin-8-yl)oxy)propyl)amino)-2-oxoethyl)-1,4,7,10-tetraazacyclododecane-1,4,7-triyl)triacetic acid]: the IC50 is 0.62 ± 0.26 nM.
For the molecule `CN1/C(=C/C=C/C=C/C2=[N+](CCCCCC(=O)NCCCOc3cccc4c(C(=O)NCC(=O)N5CC(F)(F)C[C@H]5C#N)ccnc34)c3ccc(S(=O)(=O)[O-])cc3C2(C)C)C(C)(C)c2cc(S(=O)(=O)O)ccc21` [eFAP-7, 1-(6-((3-((4-((2-((S)-2-cyano-4,4-difluoropyrrolidin-1-yl)-2-oxoethyl)carbamoyl)quinolin-8-yl)oxy)propyl)amino)-6-oxohexyl)-3,3-dimethyl-5-sulfo-2-((1E,3E)-5-((E)-1,3,3-trimethyl-5-sulfoindolin-2-ylidene)penta-1,3-dien-1-yl)-3H-indol-1-ium], the half-inhibitory concentration (IC50) worked out at 1 ± 0.36 nM.
